# Numbered stars: 1 amine (or outer) side, 2 acyl side, 3 side chain; on linkers, the order of the positions; unused ones are H or OH. Square brackets hold non-standard residues; d marks the D form. Peptide text beside a SMILES is read from it. * marks the point of attachment. ξ: configuration not given here. X1 = N=C1NCC(C(O)C(N[*:1])C(=O)[*:2])N1C1OC(CO)C(O)C(O)C1O; ξEnduracididine(βξ-OH,4'ξ) = N=C1NCC(C(O)C(N)C(=O)O)N1; X2 = OCC1OC(OC2C(CO)OC(*)C(O)C2O)C(O)C(O)C1O; Cha = N[CH](CC1CCCCC1)C(=O)O
# How the values were obtained:
# [1] = tested on: Enterococcus sp.; assay: In vitro antibacterial evaluation: minimum inhibitory concentration (MIC), broth dilution method; assay type: cell-based
# Summary of the method: (§1)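 MIC by broth dilution in Mueller-Hinton II medium following NCCLS M7-A2. Inoculum was 5×10^5 CFU/mL and antibiotic was tested over 64-0.06 μg/mL. Gram-positive panel included clinical isolates resistant to methicillin, penicillin and/or vancomycin.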
# [2] = tested on: Escherichia coli; assay: as above; assay type: cell-based
# Summary of the method: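 Values are minimum inhibitory concentrations, meaning the smallest antibiotic concentration that stops growth of the organism. They come from broth dilution in Muller-Hinton II […] per NCCLS guidance (M7-A2), using 5×10^5 CFU/mL and concentrations from 64 to 0.06 μg/mL.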
# [3] = tested on: Streptococcus sp.; assay: as above; assay type: cell-based; conditions: 18 hours at 35° C.
# Summary of the method: as §1
# [4] = tested on: Staphylococcus sp.; assay: as above; assay type: cell-based; conditions: 18 hours at 35° C.
# Summary of the method: as §1
# [5] = tested on: Escherichia coli; assay: as above; assay type: cell-based; remark: listed apart in the source
# [6] = Anatomic pathology (heart and kidney histopathology) in mice; assay type: in vivo, CD-1 mice; conditions: 20 mg/kg intravenously daily for 9 days, microscopic histopathology on day 10
# Summary of the method: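 Histopathology on H&E-stained, paraffin-embedded sections, subjectively scored (slight, mild, moderate, marked, severe) relative to untreated controls. Dosing: glycopeptide antibiotics 20 mg/kg intravenously once daily ×9 days in 20-day-old CD-1 mice, n=5 per group including vehicle.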
# [7] = tested on: Staphylococcus aureus-SMITH (GC 4543); assay: Acute lethal infection in mice (ED50); assay type: in vivo; conditions: female CD-1 mice, intraperitoneal challenge, intravenous dose 30 min. after infection, 7 day survival ratios
# Summary of the method: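 Groups of five female CD-1 mice per dose got intravenous antibiotic in saline or 5% dextrose half an hour after intraperitoneal infection sufficient to kill controls within 24-48 hr. Seven-day survival data from three experiments were combined to derive ED50.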
# [8] = assay type: in vivo; conditions: mice, 20 mg/kg intravenously daily for 9 days, serum on day 10
# Description: 20-day-old CD-1 mice were divided into a vehicle control group (5 mice) and a treatment group (5 mice). Samples of glycopeptide antibiotics were administered at 20 mg/kg intravenously daily for 9 days. Animals were necropsied on day 10 Sera were analyzed for BUN (blood urea nitrogen), creatinine, AST (aspartic aminotransferase), and ALT (alanine aminotransferase) by routine, standard, automated methods using an Hitachi 747 chemistry analyzer.
compound,measurement,setting,value
"N=C1NCC(C(O)C2NC(=O)C(Cc3ccc(OC4OC(CO)C(OC5OC(CO)C(O)C(O)C5O)C(O)C4O)cc3)NC(=O)C(CC3CCCCC3)NC(=O)CNC(=O)C(CO)NC(=O)C(C(O)C3CNC(=N)N3C3OC(CO)C(O)C(O)C3O)NC2=O)N1 (stereo not drawn) [Example 263, Cyclo[3-cyclohexylalanyl-O-(4-O-hexopyranosylhexopyranosyl)tyrosyl-3-(2-iminoimidazolidin-4-yl)seryl-3-(3-hexopyranosyl-2-iminoimidazolidin-4-yl)serylserylglycyl]] (cyclo(G[Cha]Y(X2)[ξEnduracididine(βξ-OH,4'ξ)][X1]S); configuration not given here)",MIC Enterococcus avium (GC 4558),[1]; Enterococcus avium (GC 4558),>64 µg/mL
same,MIC Enterococcus faecalis (ATCC 29212),[1]; Enterococcus faecalis (ATCC 29212),>64 µg/mL
same,MIC Enterococcus faecalis (GC 2242),"[1]; Enterococcus faecalis (GC 2242), 18 hours at 35° C.",>64 µg/mL
same,MIC Enterococcus faecalis (GC 4552),"[1]; Enterococcus faecalis (GC 4552), 18 hours at 35° C.",>64 µg/mL
same,MIC Enterococcus faecalis (GC 4553),[1]; Enterococcus faecalis (GC 4553),>64 µg/mL
same,MIC Enterococcus faecalis (GC 4554),[1]; Enterococcus faecalis (GC 4554),>64 µg/mL
same,MIC Enterococcus faecium (GC 2243),[1]; Enterococcus faecium (GC 2243),>64 µg/mL
same,MIC Enterococcus faecium (GC 4556),[1]; Enterococcus faecium (GC 4556),>64 µg/mL
same,MIC Enterococcus faecium (GC 4557),[1]; Enterococcus faecium (GC 4557),32 µg/mL
same,MIC Escherichia coli (GC 4559),[2]; Escherichia coli (GC 4559),>64 µg/mL
same,MIC Escherichia coli (GC 4560),[2]; Escherichia coli (GC 4560),16 µg/mL
same,MIC Streptococcus agalactiae (GC 4564),[3]; Streptococcus agalactiae (GC 4564),32 µg/mL
same,MIC Streptococcus pyogenes (ID-3187),[3]; Streptococcus pyogenes (ID-3187),32 µg/mL
same,MIC Coagulase Negative Staphylococcus (GC 4547),[4],64 µg/mL
same,MIC Coagulase Negative Staphylococcus (GC 4547),[4]; broth dilution,64 µg/mL
same,MIC Coagulase Negative Staphylococcus (GC 4548),[4],32 µg/mL
same,MIC Coagulase Negative Staphylococcus (GC 4548),[4]; broth dilution,32 µg/mL
same,MIC Coagulase Negative Staphylococcus (GC 4549),[4],16 µg/mL
same,MIC Coagulase Negative Staphylococcus (GC 4549),[4]; broth dilution,16 µg/mL
same,MIC Coagulase Negative Staphylococcus (GC 4551),[4],64 µg/mL
same,MIC Coagulase Negative Staphylococcus (GC 4551),[4]; broth dilution,64 µg/mL
same,MIC Staphylococcus aureus (ATCC 29213),[4],64 µg/mL
same,MIC Staphylococcus aureus (ATCC 29213),[4]; broth dilution,64 µg/mL
same,MIC Staphylococcus aureus (GC 1131),[4],64 µg/mL
same,MIC Staphylococcus aureus (GC 1131),[4]; broth dilution,64 µg/mL
same,MIC Staphylococcus aureus (GC 4541),[4],64 µg/mL
same,MIC Staphylococcus aureus (GC 4541),[4]; broth dilution,64 µg/mL
same,MIC Staphylococcus aureus (GC 4542),[4],64 µg/mL
same,MIC Staphylococcus aureus (GC 4542),[4]; broth dilution,64 µg/mL
same,MIC Staphylococcus aureus (GC 4544),[4],>64 µg/mL
same,MIC Staphylococcus aureus (GC 4544),[4]; broth dilution,>64 µg/mL
same,MIC Staphylococcus aureus (GC 4545),[4],64 µg/mL
same,MIC Staphylococcus aureus (GC 4545),[4]; broth dilution,64 µg/mL
same,MIC Staphylococcus aureus-SMITH (GC 4543),[4],32 µg/mL
same,MIC Staphylococcus aureus-SMITH (GC 4543),[4]; broth dilution,32 µg/mL
same,MIC Staphylococcus haemolyticus (GC 4546),[4],32 µg/mL
same,MIC Staphylococcus haemolyticus (GC 4546),[4]; broth dilution,32 µg/mL
same,MIC Escherichia coli (ATCC 25922),[5],>64 µg/mL
same,"Anatomical Pathology (Day 10), Heart",[6],+
same,"Anatomical Pathology (Day 10), Kidney",[6],++
same,"median effective dose (ED50), Staphylococcus aureus-SMITH (GC 4543)",[7],>8
"CC(c1ccccc1)C1NC(=O)CNC(=O)C(CO)NC(=O)C(CC2CNC(=N)N2C2OC(CO)C(O)C(O)C2O)NC(=O)C(CC2CNC(=N)N2)NC(=O)C(Cc2ccc(OC3OC(CO)C(OC4OC(CO)C(O)C(O)C4O)C(O)C3O)cc2)NC1=O (stereo not drawn) [Example 277a, Cyclo[3-(2-iminoimidazolidin-4-yl)alanyl-3-(3-hexopyranosyl-2-iminoimidazolidin-4-yl)-alanylserylglycyl-β-methylphenylalanyl-O-(4-O-hexopyranosylhexopyranosyl]tyrosyl]]","Clinical Chemistry (Day 10) % of Control, BUN",[8],+110%
same,"Anatomical Pathology (Day 10), Heart",[6],0
same,"Anatomical Pathology (Day 10), Kidney",[6],++
same,"median effective dose (ED50), Staphylococcus aureus-SMITH (GC 4543)",[7],>8
CC(C)CC(=O)OCC1OC(OC2C(CO)OC(Oc3ccc(CC4NC(=O)C(C(C)c5ccccc5)NC(=O)CNC(=O)C(CO)NC(=O)C(CC5CNC(=N)N5C5OC(CO)C(O)C(O)C5O)NC(=O)C(CC5CNC(=N)N5)NC4=O)cc3)C(O)C2O)C(O)C(O)C1O (stereo not shown) [Example 277c],"Clinical Chemistry (Day 10) % of Control, AST",[8],+253%
